Measurements: publication PMC5739597, “Discovery and evaluation of triple inhibitors of VEGFR-2, TIE-2 and EphB4 as anti-angiogenic and anti-cancer agents” (Oncotarget, 2017)

How the values were obtained:
EphB4 = biological target: T1, EphB4 (Homo sapiens, UniProt P54760); test: ADP-Glo in vitro RTK inhibition assay, EphB4; type: biochemical; details: ATP 50 μM
T1 sequence (P54760 16-987): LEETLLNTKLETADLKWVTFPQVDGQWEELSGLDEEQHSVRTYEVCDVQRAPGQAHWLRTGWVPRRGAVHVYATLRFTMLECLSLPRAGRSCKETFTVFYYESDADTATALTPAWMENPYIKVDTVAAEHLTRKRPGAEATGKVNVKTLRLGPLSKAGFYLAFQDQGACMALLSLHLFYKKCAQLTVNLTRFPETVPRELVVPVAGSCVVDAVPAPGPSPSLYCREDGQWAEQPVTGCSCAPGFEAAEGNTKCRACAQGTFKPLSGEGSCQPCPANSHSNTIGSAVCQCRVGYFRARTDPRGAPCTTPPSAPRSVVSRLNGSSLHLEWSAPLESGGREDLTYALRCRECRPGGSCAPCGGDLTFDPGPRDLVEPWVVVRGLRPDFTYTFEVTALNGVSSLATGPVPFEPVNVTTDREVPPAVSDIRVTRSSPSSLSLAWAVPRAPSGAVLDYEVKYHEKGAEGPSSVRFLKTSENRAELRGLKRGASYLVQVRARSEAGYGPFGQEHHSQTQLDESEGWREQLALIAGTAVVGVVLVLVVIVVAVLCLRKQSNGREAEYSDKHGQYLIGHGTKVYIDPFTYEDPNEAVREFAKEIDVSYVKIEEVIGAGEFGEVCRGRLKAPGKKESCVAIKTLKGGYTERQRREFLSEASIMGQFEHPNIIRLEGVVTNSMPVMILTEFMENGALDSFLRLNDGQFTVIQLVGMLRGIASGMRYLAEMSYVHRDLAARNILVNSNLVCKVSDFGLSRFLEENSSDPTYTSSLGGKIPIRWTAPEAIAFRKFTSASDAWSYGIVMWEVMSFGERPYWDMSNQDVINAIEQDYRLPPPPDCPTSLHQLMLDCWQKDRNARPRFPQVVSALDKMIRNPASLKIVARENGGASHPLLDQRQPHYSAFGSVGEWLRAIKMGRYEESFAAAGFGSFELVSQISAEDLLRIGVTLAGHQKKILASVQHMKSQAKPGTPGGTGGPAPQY
Protocol: In order to validate the direct effect of title compounds on VEGFR-2, Tie-2, and EphB4 kinases, we performed in vitro assay using the ADP-Glo Kinase Assay Kit (Promega, Wisconsin, USA).
The kinase assay was performed in a reaction mixture of final volume of 10 μL. […] The plate was incubated at 30°C for 1 h. After the plate was cooled at room temperature for 5 min, 5 μL of ADP-Glo reagent was added into each well to stop the reaction and consume the remaining […] within 40 min. At the end, 10 μL of kinase detection reagent was added into the well and incubated for 30 min to produce a luminescence signal. […] The assay plate was incubated at 30°C for 4 h. After the plate was cooled at room temperature for 5 min, 5 μL of ADP-Glo reagent was added into each well to stop the reaction and consume the remaining […] within 1 h. At the end, 10 μL of kinase detection reagent was added into each well and incubated for 30 min to produce a luminescence signal. The luminescence was read by VICTOR-X multi-label plate reader.

[1] = tested on: human hepatic cancer cell lines (7721); test: Anti-proliferative MTT assay, 7721; type: cell-based; details: 48 h
Protocol: (§1) These RTKs play critical roles in the proliferation of various cancers. Therefore, RTKs inhibition generally translate well into anti-proliferation activity.
(§2) Exponentially growing cells were harvested and plated in 96-well plates at a concentration of 1×10^4 cells/well per well, and then were incubated at 37°C for 24 h. […] Subsequently, 22 μL fresh MTT (5 mg/mL) was added to each well and incubated at 37°C for 4 h. […] DMSO was added to each well after supernatant was discarded. Absorbance values were determined by a microplate reader (Bio-Rad Instruments) at 490 nm. The IC50 values were calculated according to inhibition ratios.

[2] = tested on: human breast cancer cell lines (MCF-7); test: Anti-proliferative MTT assay, MCF-7; type: cell-based; details: MCF7, 48 h
Protocol: as §1, §2

B-Raf = B-Raf (Homo sapiens, UniProt P15056); test: Kinase-Glo Plus RTK selectivity assay, B-Raf; type: biochemical; details: 10 μM ATP
Protocol: A 50 μL reaction mixture contains 40 mM Tris, pH 7.4, 10 mM MgCl2, 0.1 mg/ml BSA, 1 mM DTT, 10 μM ATP, kinase and substrate (0.2 mg/mL Poly(Glu, Tyr)/10 μM ATP). The test compounds were diluted in 10% DMSO and 5 μL of the dilution was added to a 50 μL reaction so that the final concentration of DMSO is 1% in all of reactions. The assay was performed using Kinase-Glo Plus luminescence kinase assay kit. It measures kinase activity by quantitating the amount of ATP remaining in solution following a kinase reaction. The luminescent signal from the assay is correlated with the amount of ATP present and is inversely correlated with the amount of kinase activity. The IC50 values were calculated using nonlinear regression with normalized dose−response fit using Prism GraphPad software.

[3] = tested on: human pancreatic cancerous cell lines (PANC-1); test: Anti-proliferative MTT assay, PANC-1; type: cell-based; details: 48 h
Protocol: as §1, §2

[4] = tested on: human colon carcinoma cell line (LOVO); test: Anti-proliferative MTT assay, LOVO; type: cell-based; details: 48 h
Protocol: as §1, §2

EA.hy926 cells = test: Apoptosis detection assay (annexin V-FITC/PI flow cytometry); type: cell-based, human; details: 48 h, negative control 10.35%
Protocol: A substantial and dose-dependent proapoptotic activity in HECs at various concentrations for 48 h was observed. The apoptotic EA.hy926 cells (10.35%) of negative control group were depicted in Figure 3A.
The cells were then harvested by trypsinization and washed twice with cold PBS. After centrifugation and removal of the supernatants, EA.hy926 cells were re-suspended in 400 μL of 1×binding buffer which was then added to 5 μL of annexin V-FITC and incubated at room temperature for 15 min. After adding 10 μL of PI the cells were incubated at room temperature for another 15 min in the dark. The stained cells were analyzed by a flow cytometer (BD Accuri C6).

[5] = tested on: human cervical cancer cell line (HeLa); test: Anti-proliferative MTT assay, HeLa; type: cell-based; details: 48 h
Protocol: as §1, §2

Sequence of B-Raf (P15056 whole entry, species assumed): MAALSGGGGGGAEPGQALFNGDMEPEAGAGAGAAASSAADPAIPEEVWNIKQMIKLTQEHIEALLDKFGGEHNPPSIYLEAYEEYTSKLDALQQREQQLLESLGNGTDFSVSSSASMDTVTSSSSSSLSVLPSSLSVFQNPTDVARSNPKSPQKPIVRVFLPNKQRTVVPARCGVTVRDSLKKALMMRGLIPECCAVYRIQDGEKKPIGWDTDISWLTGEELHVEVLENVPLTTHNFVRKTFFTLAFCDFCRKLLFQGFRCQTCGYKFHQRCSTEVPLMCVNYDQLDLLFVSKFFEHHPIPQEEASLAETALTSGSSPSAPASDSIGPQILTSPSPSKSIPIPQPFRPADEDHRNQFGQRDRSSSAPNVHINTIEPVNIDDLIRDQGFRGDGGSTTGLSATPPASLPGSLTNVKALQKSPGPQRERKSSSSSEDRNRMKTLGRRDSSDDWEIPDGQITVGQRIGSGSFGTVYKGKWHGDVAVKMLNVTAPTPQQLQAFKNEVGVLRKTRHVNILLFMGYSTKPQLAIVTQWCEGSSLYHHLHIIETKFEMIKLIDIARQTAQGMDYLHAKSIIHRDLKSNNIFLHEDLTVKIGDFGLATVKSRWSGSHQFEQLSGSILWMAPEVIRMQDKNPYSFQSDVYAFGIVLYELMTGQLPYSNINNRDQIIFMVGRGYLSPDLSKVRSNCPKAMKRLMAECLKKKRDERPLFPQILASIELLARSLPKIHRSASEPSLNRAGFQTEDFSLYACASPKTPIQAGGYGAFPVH

IC50 (EphB4): 0.00321 µM
IC50 [1]: 58.7 µM
IC50 [2]: 2.12 µM
IC50 (B-Raf): > 0.5 µM
IC50 [3]: 24.9 µM
IC50 [4]: 4.99 µM
IC50 [5]: 5.56 µM
SMILES: O=C(Nc1ccc(-c2ccc3c(=O)[nH]cnc3c2)cc1)Nc1ccc(F)c(F)c1 [QDAU5, 1-(3,4-difluorophenyl)-3-(4-(4-oxo-3,4-dihydroquinazolin-7-yl)phenyl)urea]
percentage of early apoptotic cells (EA.hy926 cells; EA.hy926, 5 nM): 19.55%
percentage of early apoptotic cells (EA.hy926 cells; EA.hy926, 20 nM): 28.35%
percentage of early apoptotic cells (EA.hy926 cells; EA.hy926, 40 nM): 31.43%
